Results on 3 compounds are retold here after US6593087B2, “Methods for detecting and reversing resistance to macrocyclic lactone compounds” (priority 1997, dated 2003).

The test system of series [1] is H. contortus susceptible strain (PF14). Nature of the series: Efficacy of verapamil with or without ivermectin against susceptible H. contortus in jirds (Example 7). In kind it is in vivo, Haemonchus contortus. As for the experimental part:
(§1) Jirds, which are fed on a standard commercial ration to which 0.02% hydrocortisone has been added 5 days prior to infection, are inoculated with 1000 exsheathed L3 H. contortus. On day 10 after inoculation, the jirds are treated with either water or various doses of moxidectin or ivermectin orally. Each treatment group contains 6 jirds. Probit analyses are used to estimate LD50 levels for each anthelmintic against each strain.
(§2) Verapamil is given concomitantly with ivermectin by the oral route.

The test system of series [2] is H. contortus moxidectin-resistant strain (MOF14). Nature of the series: Effect of verapamil on efficacy of moxidectin and ivermectin against moxidectin-resistant H. contortus in jirds (Example 8). It is filed as in vivo, Haemonchus contortus. The arrangement: key to SIGNIFICANCE AT P <0.05: A: Different letters indicate the mean worm counts are statistically different; B: Different letters indicate the mean worm counts are statistically different; C: Different letters indicate the mean worm counts are statistically different. The following applies: for SIGNIFICANCE AT P <0.05: MOF14 in jirds, mean worm counts, IVM (±VRP) not compared with MOX (±VRP).

Series [3] has the same test system. The series is described as follows: Efficacy of verapamil with or without ivermectin against moxidectin resistant H. contortus in jirds (Example 7). In kind it is in vivo, Haemonchus contortus. As for the experimental part:
as §1, §2

Series [4] relates to H. contortus susceptible strain (PF14). The series is described as follows: Dose titration to establish LD50 against susceptible H. contortus in the jird. In kind it is in vivo, Haemonchus contortus. The note with it: jirds, oral, treated day 10 after inoculation, probit analysis. As for the experimental part:
as §1

Series [5] deals with mice with deletion of mdr1a. The note with it: mice with deletion of mdr1a versus normal mice; cited from earlier work.
The test system of series [6] is H. contortus ivermectin resistant strain (ACR). The following applies: ACR after twelve generations of ivermectin selection.
Series [7] has as its system H. contortus moxidectin-resistant strain (MOF14). The series is described as follows: Dose titration to establish LD50 against moxidectin resistant H. contortus in the jird. The following applies: jirds, oral, treated day 10 after inoculation, probit analysis. In kind it is in vivo, Haemonchus contortus. As for the experimental part: as §1
Series [8] has as its system H. contortus ivermectin resistant strain (MFR). The note with it: MFR selected over seventeen generations of ivermectin selection; cited from earlier work.
Setting [9] is: verapamil 20 mg/kg, resistant worms, jirds (Example 8).

Consider `COc1ccc(CCN(C)CCCC(C#N)(c2ccc(OC)c(OC)c2)C(C)C)cc1OC` (centres unmarked) [verapamil], for which the “significance of worm counts” value in series [1] (susceptible strain PF14 in jirds, VRP 20 mg/kg, IVM 0.024 mg/kg, oral) was “n.s”; in series [3] (MOX-resistant strain MOF14 in jirds, VRP 20 mg/kg, IVM 0.046 mg/kg, oral) it was “n.s”. In addition, the “effect of verapamil alone on worm counts” value in series [1] (susceptible strain, any of the dose rates used (20 to 80 mg/kg), jirds) is on record as “no significant effect on worm counts”; in series [3] (moxidectin resistant strain, any of the dose rates used (20 to 80 mg/kg), jirds), “no significant effect on worm counts”. The “SIGNIFICANCE AT P <0.05” value in series [2] was “A”. In addition, in series [2] (setting [9]), the “effect of verapamil on the efficacy of moxidectin” value is listed as “significantly increases the efficacy of moxidectin”. In addition, in series [2] (setting [9]), the “increase in efficacy when verapamil is coadministered with ivermectin” value was “not significant”. Moreover, the “effect of verapamil on the efficacy of ivermectin” value in series [3] (verapamil 20 mg/kg, moxidectin resistant worms, jirds (Example 7)) is on record as “significantly enhances the efficacy of ivermectin”.

On to 22,23-dihydroavermectin B1 [ivermectin], for which the “estimated LD50” value was 0.024 mg/kg in series [4] and 0.046 mg/kg in series [7]. Moreover, in series [5], the “sensitivity to ivermectin relative to normal mice” value was 50-100 times. Besides, the “resistance at the ED95 compared with ACS” value in series [6] is recorded as 6.3 ×. Also, the “SIGNIFICANCE AT P <0.05” value in series [2] is reported as “B”. Moreover, in series [8], the “resistance at the ED95 compared with MFS” value is on record as 10 ×.

In the case of `CO/N=C1\C[C@]2(C[C@@H]3C[C@@H](C/C=C(\C)C[C@@H](C)/C=C/C=C4\CO[C@@H]5[C@H](O)C(C)=C[C@@H](C(=O)O3)[C@]45O)O2)O[C@H](/C(C)=C/C(C)C)[C@H]1C` [moxidectin, 23-(O-methyloxime)-LL-F28249α], the “estimated LD50” value in series [4] was 0.010 mg/kg; in series [7], 0.017 mg/kg. The “SIGNIFICANCE AT P <0.05” value in series [2] is listed as “B”.
